# Assays:
# aromatase = target: T1, aromatase (Homo sapiens, UniProt P11511); experiment: Test A: Determination of Aromatase Activity (release of tritium-labeled water, human placenta microsomes); format: biochemical; conditions: for Ki: Test A, human placenta microsomes, Dixon method; for inhibition of aromatase (in words): in comparison with compound 1 / compounds known so far
# T1 construct: microsomes obtained from human placenta; from tissue; host or cells: human placenta, microsomes
# T1 sequence (P11511 1-503): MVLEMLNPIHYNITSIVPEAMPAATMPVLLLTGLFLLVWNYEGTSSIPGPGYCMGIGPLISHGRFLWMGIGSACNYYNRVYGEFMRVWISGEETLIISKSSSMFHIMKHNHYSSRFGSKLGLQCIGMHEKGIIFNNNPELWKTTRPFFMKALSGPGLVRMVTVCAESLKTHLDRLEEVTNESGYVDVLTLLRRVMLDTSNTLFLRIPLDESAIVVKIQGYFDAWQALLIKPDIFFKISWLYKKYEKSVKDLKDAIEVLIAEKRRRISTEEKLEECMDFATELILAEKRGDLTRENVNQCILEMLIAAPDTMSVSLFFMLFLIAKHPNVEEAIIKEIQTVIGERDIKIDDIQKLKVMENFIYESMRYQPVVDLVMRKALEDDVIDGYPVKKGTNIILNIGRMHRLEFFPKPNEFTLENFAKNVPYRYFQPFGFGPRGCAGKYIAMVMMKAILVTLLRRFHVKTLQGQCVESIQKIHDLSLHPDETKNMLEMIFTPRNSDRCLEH
# Description: Determination of Aromatase Activity
# The capabilities of compounds to inhibit the enzyme system of aromatase is tested on microsomes obtained from human placenta. The release of tritium-labeled water (^3 H2 O), which is released as reaction product in the aromatizing of (1beta-^3 H) androstrenedione to estrogen, is measured according to the methods of Thompson and Siiteri (J. Biol. Chem. Z49, 5364-72 (1974)). The corresponding inhibition values (K1, aromatase) are determined according to the method of Dixon (Biochem. J. 94, 760 (1965) by graphic determination of the application of 1/v against the inhibition concentration.
# 11beta-hydroxylase = target: T2, 11beta-hydroxylase (Bos taurus, UniProt P15150); experiment: Test B: Determination of 11-beta Hydroxylase Activity (mitochondria from bovine suprarenals); format: biochemical; conditions: for IC50: Test B, bovine suprarenal mitochondria, substrate concentration corresponds to apparent Km; for selectivity of aromatase inhibition (in words): aromatase vs other enzyme systems (11beta-hydroxylase), in comparison with compound 1 / compounds known so far
# T2 construct: mitochondria, obtained from bovine suprarenals; from tissue; host or cells: bovine suprarenals (adrenal glands), mitochondria
# T2 sequence (P15150 25-503): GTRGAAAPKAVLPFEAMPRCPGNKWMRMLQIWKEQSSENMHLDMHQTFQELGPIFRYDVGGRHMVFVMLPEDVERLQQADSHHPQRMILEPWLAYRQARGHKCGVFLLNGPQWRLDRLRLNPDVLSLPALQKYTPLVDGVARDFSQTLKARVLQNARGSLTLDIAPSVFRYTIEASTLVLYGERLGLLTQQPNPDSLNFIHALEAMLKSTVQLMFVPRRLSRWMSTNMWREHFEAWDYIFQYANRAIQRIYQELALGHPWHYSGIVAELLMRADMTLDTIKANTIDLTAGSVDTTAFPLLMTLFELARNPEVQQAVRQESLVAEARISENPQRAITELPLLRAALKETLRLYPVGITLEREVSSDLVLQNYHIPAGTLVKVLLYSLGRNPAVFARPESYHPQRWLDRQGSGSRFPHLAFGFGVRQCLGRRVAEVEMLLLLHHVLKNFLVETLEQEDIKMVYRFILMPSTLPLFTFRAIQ
# Description: Determination of 11-beta Hydroxylase Activity
# The 11beta-hydroxylase activity is measured on mitochondria, obtained from bovine suprarenals. The reaction of [1,2-^3 H]-17alpha-hydroxy-11-deoxycorticosterone in cortisol is determined by thin-film chromatography of the resulting reaction products according to a method of Mitani et al (J. Biol. Chem 250, 8010-15 (1975)). The concentration of the examined compound is determined, in which the reaction is inhibited by 50%, and the substrate concentration corresponds to the apparent Km value.
SMILES,Ki (aromatase) [nM],IC50 (11beta-hydroxylase) [nM],inhibition of aromatase (in words) (aromatase),selectivity of aromatase inhibition (in words) (11beta-hydroxylase)
"CCCC(c1ccc(C#N)cc1)n1ccnc1 (stereo not shown) [Compound 1, 4-[1-(1-imidazolyl)-butyl]-benzonitrile, reference compound]",1.1,94,,
"CCCCOC(=O)c1ccc(C(CCC)n2ccnc2)cc1 (stereo not shown) [Compound 3, 4-[1-(1-imidazolyl)-butyl]-benzoic acid butyl ester]",0.87,750,stronger inhibition actions of aromatase than compound 1,more selective effectiveness
"CCCCCC(=O)c1ccc(C(CCC)n2ccnc2)cc1 (stereo not shown) [Compound 2, [4-[1-(1-Imidazolyl)-butyl]-phenyl]-pentylketone]",0.42,1500,stronger inhibition actions of aromatase than compound 1,more selective effectiveness

# Reference: US5045558A, “N-substituted imidazoles and their use in pharmaceutical agents” (Schering Aktiengesellschaft, priority 1988, dated 1991)
